# In US20040229810A1, “Gastrin compositions and formulations, and methods of use and preparation” (priority 2002, published 2004):
# Like-named read-outs stand apart in the source and are kept apart here. Where a SMILES comes first, the peptide text is derived from it. Where no end group is shown, it is not given here. [ ]: non-standard residue; d: D form. pGlu = O=C1CC[C@@H](C(=O)O)N1
# What was measured:
# [1] = in vivo; conditions: male, cynomolgus monkey, iv
# Description: Male animals were used in the example. […] The dosing solutions for intravenous injection were administered as a single bolus dose via the saphenous vein at a dose volume of 1 mL/kg. A 0.2 mL saline flush was administered following dosing in order to ensure administration of the complete dose volume. The actual volume administered to each animal was based on the animal's most recent body weight.
# Serial blood samples (approximately 0.5 ml per time point) were collected via the brachial or femoral vein at the following time points: 0 (pre-dose), 1, 3, 5, 10, 15, 30 minutes, 1, 2, and 4 hours post dose.
# Each sample was collected into a tube containing EDTA and kept on wet ice pending centrifugation. The samples were centrifuged under refrigeration for a minimum of 10 minutes at 1, 500 g (RCF) and the resultant plasma was transferred into duplicate tubes and placed on dry ice. All samples were stored frozen for PK analysis as described below.
# Gastrin in plasma samples was measured with a well established competitive radioimmunoassay for the quantitative determination of gastrin (Russell et al., Postgraduate Medical Journal 52:645, 1976). The antibody used in the assay was raised in rabbits against synthetic human gastrin I conjugated with carbodiimide to bovine serum albumin. The antigen was labeled with ^125I and the presence of the antigen:antibody reactions were detected using a gamma counter.
# To calculate pharmacokinetic parameters, blood levels of gastrin at each time point for every animal were entered in to Graphpad Prism 3.0 (GraphPad Software, San Diego, Calif., USA,_www.graphpad.com).
# [2] = test system: NOD mice with recent onset diabetes; test: Modified vs unmodified gastrin in combination with GLP-1 in preventing diabetes progression in NOD mice with recent onset diabetes; assay type: in vivo; conditions: in combination with GLP-1 (100 μg/kg/day); gastrin compound 3 μg/kg/day gastrin equivalent i.p. daily for 14 days; compared to GLP-1 with native gastrin (Compound B)
# Description: In this example, the effect of treatment by a combination of GLP-1 and unmodified gastrin and GLP-1 and modified gastrin compounds/conjugates were examined in NOD mice with recent onset diabetes, to determine whether administration of both GLP-1 and gastrin would prevent severe hyperglycemia as well as increase pancreatic insulin content in NOD mice with recent-onset diabetes. The GLP-1 used was GLP-1 which is the biologically active fragment of human/mouse GLP-1 (having residues at positions 7-36 compared to the precursor from which the fragment is processed; obtained from Bachem H6795). […]
# Non-obese diabetic (NOD) female mice, ages 12-14 weeks, were monitored for development of onset of diabetes (fasting blood glucose >8.0 to 15 mmol/l), and within 48 hours after onset of symptoms, four groups of mice were each treated as follows: one group was treated with vehicle only; and the other group was administered 100 μg/kg/day of GLP-1, and the remaining groups were treated with combination of GLP-1 (100 μg/kg/day) and gastrin compound (3 μg/kg/day gastrin equivalent), each treatment administered via the intraperitoneal route daily.
# Therapy was administered for 14 days. Animals were monitored weekly for fasting blood glucose (FBG) levels. FBG levels were measured at about 12 hours after food had been withdrawn, and 24 hours after the last peptide or vehicle injection. […]
# [3] = cited from earlier work
molecule,measurement,setting,value
CC(C)C[C@H](NC(=O)[C@H](Cc1c[nH]c2ccccc12)NC(=O)CNC(=O)[C@H](Cc1ccc(O)cc1)NC(=O)[C@H](C)NC(=O)[C@H](CCC(=O)O)NC(=O)[C@H](CCC(=O)O)NC(=O)[C@H](CCC(=O)O)NC(=O)[C@H](CCC(=O)O)NC(=O)[C@H](CCC(=O)O)NC(=O)[C@H](CC(C)C)NC(=O)[C@H](Cc1c[nH]c2ccccc12)NC(=O)[C@@H]1CCCN1C(=O)CNC(=O)[C@@H]1CCC(=O)N1)C(=O)N[C@@H](CC(=O)O)C(=O)N[C@@H](Cc1ccccc1)C(N)=O [Compound B] ([pGlu]GPWLEEEEEAYGWLDF-NH2),AUC,[1]; 3 ug/kg,4.18 ng·h/mL
same,Cmax,[1]; 3 ug/kg,27 ng/mL
same,Tmax,[1]; 3 ug/kg,2 min
same,half-life,"[1]; 3 ug/kg, t ½",5 min
same,AUC,[1]; 30 ug/kg,42.1 ng·h/mL
same,Cmax,[1]; 30 ug/kg,268 ng/mL
same,Tmax,[1]; 30 ug/kg,1 min
same,half-life,"[1]; 30 ug/kg, plasma t1/2",4 to 5 min
same,half-life,"[1]; 30 ug/kg, t ½",5 min
same,AUC,"[1]; cynomolgus, 10 ug/kg",15.7 ng·h/mL
same,Cmax,"[1]; cynomolgus, 10 ug/kg",127 ng/mL
same,Tmax,"[1]; cynomolgus, 10 ug/kg",1 min
same,half-life,"[1]; cynomolgus, 10 ug/kg, t ½",4 min
"Compound E: gastrin peptide residues 2-17 of SEQ ID NO: 4 with N-terminal Cys residue, no linker (CGPWLEEEEEAYGWLDF; not fully specified (C-terminus); ends and bridges not checked)",reducing blood glucose levels in diabetic animals,[2],more effecting in reducing blood glucose levels
"Compound Q: human serum albumin conjugate of N-terminal Cys gastrin peptide residues 2-17 of SEQ ID NO: 4 with (GA)5 linker (GPWLEEEEEAYGWLDF; not fully specified (N-terminus, C-terminus); ends and bridges not checked; also: human serum albumin conjugate)",reducing blood glucose levels in diabetic animals,[2],more effecting in reducing blood glucose levels
Gastrin-17,circulating half-life,[3]; in vivo,5 to 9 min
"gastrin-34 ([pGlu]LGPQGPPHLVADPSKKQGPWLEEEEEAYGWMDF-NH2; ends and bridges not checked; UniProt P01350 59-92, looked up)",circulating half-life,[3]; background statement,about 35 mins
